8 molecules from patent US9056110B2, “Substituted pyrimidinone-phenyl-pyrimidinyl compounds” (Confluence Life Sciences, Inc., priority 2011, dated 2015) can be followed below.

One experiment deals with p38α/MK2 (Homo sapiens, UniProt Q16539). The experiment in a line: p38α/MK2 cascade assay (IMAP, Hsp27 peptide phosphorylation). The class given is biochemical. The settings on record: for IC50: p38α/MK2 cascade, Hsp27 peptide 1 μM, MgATP 10 μM, 120 minutes, read-out: p38/MK2 IC50; for Selectivity Ratio: ratio of p38α/PRAK:p38α/MK2 IC50 values. The protocol:
(§1) P38 inhibitory potency and P38/MK2 substrate selectivity: The novel, MK2 substrate-selective inhibitory mechanism of compounds is evaluated in enzyme assays that compare inhibitor potency in blocking p38/MK2 versus p38/PRAK induced phosphorylation of an HSP-27 derived peptide substrate. The ability of compounds to inhibit activated phospho-p38α is evaluated using a p38α/MK2 and a p38α/PRAK cascade assay format. The kinase activity of p38α is determined by its ability to phosphorylate and activate GST-MK2 or GST-PRAK. The kinase activity of activated MK2 and PRAK is followed by measuring the phosphorylation of a fluorescently-labeled, peptide substrate based on the sequence of Hsp27 (FITC-KKKALSRQLSVAA). The phosphorylation of the Hsp27 peptide is quantified using IMAP assay technology (Molecular Devices) and the Analyst HT plate reader (LJL Biosystems). Kinase reactions are carried out in a 384-well plate (Corning 3575) in 20 mM HEPES pH 7.5, 10 mM MgCl2, 0.0005% Tween-20, 0.01% BSA, 1 mM DTT, and 2% DMSO. The inhibitor concentration varies between 0.5-30,000 nM, while the Hsp27 peptide substrate and MgATP are held constant at 1 μM and 10 μM, respectively. Activated p38α is added to a final concentration of 20 pM for reactions with 1 nM nonphosphorylated 1 nM GST-MK2. For the p38α/PRAK cascade, unactivated GST-PRAK is held constant at 10 nM while p38α is added to a final concentration of […]. Kinase reactions are incubated at room temperature and quenched after 120 minutes by the addition of 1× Progressive Binding Buffer A containing 1×IMAP beads (IMAP FP Progressive Screening Express Kit, Molecular Devices Catalog Number R8127). Inhibitor potency is calculated by fitting dose-response data to the 4-parameter logistical IC50 equation. The substrate selectivity is calculated as a ratio of p38α/PRAK:p38α/MK2 IC50 values. A substrate selective inhibitor will have a p38α/PRAK:p38α/MK2 IC50 ratio of >2 while a classical p38 inhibitor will have a ratio of between 0.5-2. […] By way of example, the enhanced therapeutic benefit could be associated with a reduction in inhibition of p38 mediated anti-inflammatory functions, such as IL-10 production and TAB1 phosphorylation. An increased safety profile is expected based, for example, on a reduced inhibition of p38 substrates, such as PPARg and CDC25 phosphatase and PLA2 involved in gluconeogenesis and cell cycle regulation, respectively.

Another experiment has as its target p38α/PRAK (Homo sapiens, UniProt Q16539). Nature of the experiment: p38α/PRAK cascade assay (IMAP, Hsp27 peptide phosphorylation). The settings on record: Hsp27 peptide 1 μM, MgATP 10 μM, 120 minutes, read-out: p38/PRAK IC50. The experiment is classed as biochemical. The method, then:
as §1

A further experiment has as its system TNFα. The experiment in a line: LPS stimulated TNFα production in human PBMCs (ELISA). The experiment is classed as cell-based. The conditions noted are these: PBMC, LPS 0.1 μg/ml, 18-24 hours, read-out: PBMC Cell, TNFα IC50. The protocol:
Evaluation of the potency and efficacy of p38 inhibitors to block cytokine production is carried out using the human U937 cell line and purified human PBMCs (peripheral blood mononuclear cells). The U937 human pre-monocytic cell line is obtained from the American Type Culture Collection (Rockville, Md.). These cells are differentiated to a monocytic/macrophage phenotype as described by Burnette (Burnette et al., (2009). SD0006: a potent, selective and orally available inhibitor of p38 kinase, Pharmacology 84(1):42-60). Differentiated U937 cells are seeded into 96-well tissue culture plates (200,000 cells/well) in complete media. After 24 hours, the cells are pretreated for 60 minutes in the presence or absence of compound and then stimulated with LPS (lipopolysaccharide) (0.1 μg/mL) for 4 hours. Culture media are then collected for determination of TNFα or IL-6 levels by ELISA. Human PBMCs are isolated from leukopacks as described by Burnette (Burnette et al., (2009), op. cit.). The cells are seeded into 96-well tissue culture plates (200,000 cells/well) in complete media. After a one hour recovery period at 37° C., 5% CO2, the cells are pretreated for 60 minutes in the presence or absence of compound and then stimulated with LPS (0.1 μg/ml) for 18-24 hours. Culture media are then collected for determination of TNFα and IL1β by ELISA. Cytokine concentrations are extrapolated from recombinant protein standard curves using a four-parameter logistic model and solving for IC50 after iterating to the best least-squares fit. p38 inhibitors will show a dose dependent inhibition of LPS stimulated TNFα, and IL6 in differentiated U937 cells and a dose dependent inhibition of LPS stimulated TNFα, IL6 and IL1b in human PBMCs. As drugs that down-regulate TNFα, IL6 and IL1b are efficacious in a number of autoimmune, autoinflammatory inflammatory, cardiovascular and oncological diseases, it would be expected that p38 drugs that inhibit these cytokines and other enzymes and mediators of disease will be effective drugs. Species compounds of Formula (I), described hereinabove, evaluated in this assay, are expected to provide a therapeutic benefit in the treatment of p38 kinase mediated diseases, including lymphoma and inflammation.

Chain of p38α/PRAK (Q16539 whole entry): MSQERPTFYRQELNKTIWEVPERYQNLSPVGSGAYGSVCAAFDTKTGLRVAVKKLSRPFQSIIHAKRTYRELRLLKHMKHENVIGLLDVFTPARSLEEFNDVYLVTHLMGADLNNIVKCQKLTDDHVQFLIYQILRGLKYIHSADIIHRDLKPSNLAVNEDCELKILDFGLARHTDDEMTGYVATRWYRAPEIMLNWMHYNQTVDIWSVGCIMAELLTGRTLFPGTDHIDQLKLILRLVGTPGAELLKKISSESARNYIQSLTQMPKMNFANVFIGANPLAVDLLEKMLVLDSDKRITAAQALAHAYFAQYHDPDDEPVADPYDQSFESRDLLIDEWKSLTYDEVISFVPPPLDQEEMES
Chain of p38α/MK2 (Q16539 whole entry): as above
Chain of p38α/MK2 (P49137 whole entry partner): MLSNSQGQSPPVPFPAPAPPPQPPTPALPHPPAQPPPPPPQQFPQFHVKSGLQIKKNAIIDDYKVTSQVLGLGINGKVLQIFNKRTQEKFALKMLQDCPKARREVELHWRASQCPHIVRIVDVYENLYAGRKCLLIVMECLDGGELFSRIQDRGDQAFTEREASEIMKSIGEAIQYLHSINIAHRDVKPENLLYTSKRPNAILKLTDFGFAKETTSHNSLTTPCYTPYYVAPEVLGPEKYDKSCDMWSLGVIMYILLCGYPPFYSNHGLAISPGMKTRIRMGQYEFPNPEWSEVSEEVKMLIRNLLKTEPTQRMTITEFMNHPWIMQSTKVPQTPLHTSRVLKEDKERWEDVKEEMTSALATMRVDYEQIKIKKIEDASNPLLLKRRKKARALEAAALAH

For `Cc1cccc(COc2nc(C)n(-c3cc(-c4ccnc(C(C)(C)O)n4)ccc3C)c(=O)c2Cl)n1` (racemic) [Example 14, 5-chloro-3-(5-(2-(2-hydroxypropan-2-yl)pyrimidin-4-yl)-2-methylphenyl)-2-methyl-6-((6-methylpyridin-2-yl)methoxy)pyrimidin-4(3H)-one], the IC50 at p38α/MK2 came to 184 nM; on p38α/PRAK it was 3300 nM; with TNFα, 250 nM. Moreover, the “Selectivity Ratio” value at p38α/MK2 amounted to 17.9.

`Cc1ccc(-c2ccnc(C(C)(C)O)n2)cc1-n1c(C)nc(OCc2ccc(F)c(C)c2F)c(Cl)c1=O` [Example 22, 5-chloro-6-(2,4-difluoro-3-methyl-benzyloxy)-3-{5-[2-(1-hydroxy-1-methyl-ethyl)-pyrimidin-4-yl]-2-methyl-phenyl}-2-methyl-3H-pyrimidin-4-one]: the IC50 at p38α/MK2 was determined as 386 nM; at p38α/PRAK, 5820 nM; in the experiment with TNFα it was 215 nM. The “Selectivity Ratio” value on p38α/MK2 is 15.1.

Turning to `Cc1cccc(COc2nc(C)n(-c3cc(-c4ccnc(C(C)(C)C)n4)ccc3C)c(=O)c2Cl)c1` [Example 4, 3-(5-(2-(tert-butyl)pyrimidin-4-yl)-2-methylphenyl)-5-chloro-2-methyl-6-((3-methylbenzyl)oxy)pyrimidin-4(3H)-one], the IC50 on p38α/MK2 amounted to 1020 nM; at p38α/PRAK it was 12900 nM; with TNFα, 101 nM. Also, on p38α/MK2, the “Selectivity Ratio” value was found to be 12.6.

For `Cc1nc(COc2nc(C)n(-c3cc(-c4ccnc(C(C)(C)O)n4)ccc3C)c(=O)c2Cl)co1` [Example 9, (−)-5-chloro-3-(5-(2-(2-hydroxypropan-2-yl)pyrimidin-4-yl)-2-methylphenyl)-2-methyl-6-((2-methyloxazol-4-yl)methoxy)pyrimidin-4(3H)-one], the IC50 on p38α/MK2 is 126 nM; at p38α/PRAK it was 1330 nM; in the experiment on TNFα, 277 nM. For the same molecule, the “Selectivity Ratio” value at p38α/MK2 is 10.6.

For `Cc1ccc(-c2ccnc(C(C)(C)O)n2)cc1-n1c(C)nc(OCc2ccc(F)cc2)c(Cl)c1=O` [Example 3, 5-chloro-6-((4-fluorobenzyl)oxy)-3-(5-(2-(2-hydroxypropan-2-yl)pyrimidin-4-yl)-2-methylphenyl)-2-methylpyrimidin-4(3H)-one], the figures for the IC50 at p38α/MK2, on p38α/PRAK and in the experiment with TNFα were 51 nM, 514 nM and 54 nM, respectively. Further, on p38α/MK2, the “Selectivity Ratio” value turned out to be 10.1.

For the molecule `Cc1cccc(COc2nc(C)n(-c3cc(-c4ccnc(C(C)(C)O)n4)ccc3C)c(=O)c2Cl)n1` (single isomer, unassigned) [Example 16, (+)-5-chloro-3-(5-(2-(2-hydroxypropan-2-yl)pyrimidin-4-yl)-2-methylphenyl)-2-methyl-6-((6-methylpyridin-2-yl)methoxy)pyrimidin-4(3H)-one], the IC50 at p38α/MK2 came to 5030 nM; with TNFα, 3560 nM. For the same molecule, at p38α/MK2, the “Selectivity Ratio” value is recorded as greater than 6.0.

`Cc1nc(COc2nc(C)n(-c3cc(-c4ccnc(C(C)(C)O)n4)ccc3C)c(=O)c2Cl)co1` (single isomer, unassigned) [Example 10, (+)-5-chloro-3-(5-(2-(2-hydroxypropan-2-yl)pyrimidin-4-yl)-2-methylphenyl)-2-methyl-6-((2-methyloxazol-4-yl)methoxy)pyrimidin-4(3H)-one]: on p38α/MK2, the IC50 was found to be 19200 nM and the “Selectivity Ratio” value was greater than 1.56.

Consider `Cc1ccc(-c2ccnc(C(C)(C)O)n2)cc1-n1c(C)nc(OCc2ncc(F)cc2F)c(Cl)c1=O` [Example 20, (+)-5-chloro-6-((3,5-difluoropyridin-2-yl)methoxy)-3-(5-(2-(2-hydroxypropan-2-yl)pyrimidin-4-yl)-2-methylphenyl)-2-methylpyrimidin-4(3H)-one], for which, at p38α/MK2, the IC50 worked out at 5380 nM and the “Selectivity Ratio” value was determined as 2.82. Further, on p38α/PRAK, the IC50 was found to be 15200 nM.
